Measured values as given in PMC6736360, “P-Glycoprotein–Mediated Efflux Reduces the In Vivo Efficacy of a Therapeutic Targeting the Gastrointestinal Parasite Cryptosporidium” (The Journal of Infectious Diseases, 2019).
“Also recorded” adds a separate entry of the source. Where two headings read alike, the source gives them in different places. One block for each compound: values may come before it.

Legend:
Cryptosporidium parvum = assay: C. parvum growth inhibition, nonpolarized HCT-8 coculture assay; format: cell-based; conditions: Cryptosporidium parvum
Source text: Information regarding C. parvum growth inhibition by BKIs, the hollow fiber model, liquid chromatography–tandem mass spectrometry (LC-MS/MS) methods, and the interferon γ (IFN-γ) knockout (KO) mouse model of C. parvum infection has been described in detail previously [[15], [20–23]]. Information on BKI permeability, LC-MS/MS quantification of elacridar, and quantification of Cryptosporidium by polymerase chain reaction analysis is described in the Supplementary Materials. Unless noted otherwise, statistical significance was determined with an unpaired Student t test, using a significance level of 0.05.
To evaluate the potential impact of P-gp efflux on BKI1318 in vitro efficacy, in vitro assays with polarized and nonpolarized HCT-8 cells were evaluated. The nonpolarized HCT-8 coculture assay to screen anti-Cryptosporidium drug candidates has been previously reported by us in detail. […] Based on the reported elacridar half maximal inhibitor concentration for the inhibition of P-gp, the P-gp activity was predicted to be reduced with both elacridar concentrations. […] Elacridar alone had no effect on C. parvum levels.

C. parvum = assay: Hollow fiber in vitro Cryptosporidium culture with polarized HCT-8 cells; format: cell-based, Cryptosporidium parvum
Description: C. parvum was cultured using a hollow fiber bioreactor modified for evaluation of potential chemotherapeutic compounds [[21–23]]. Briefly, the system used a 20-kD MWCO polysulfone fiber cartridge (FiberCell Systems, Frederick, MD). HCT-8 cells were grown on the outer surface of the fibers (extracapillary space), and reservoirs were used to provide nutrients to the cells. When the glucose concentration decreased to at least 2 g/L, the extracapillary space was inoculated with 10^6C. parvum (Iowa isolate, Bunch Grass Farms, Deary, ID). […] Compound concentration was reduced over time by the flow of medium through the extracapillary and intracapillary spaces. Samples were removed from the extracapillary space once per day for evaluation of parasite numbers.
C. parvum growth was determined by analysis of the amount of C. parvum 18S-rRNA present and compared to the HCT-8 18S-rRNA as previously described^3. Briefly this was performed by centrifugation at 14,000 x g for 5 min of 0.5 mL samples collected from the extracapillary space (ECS). The pellet was resuspended in 100 µL of iScript buffer and subject to 6-freeze/thaw cycles comprising 1 min in liquid nitrogen followed by 1.5 min at 70 °C. The lysate was collected by centrifugation at 16,162 x g for 5 min, and the RNA purified according to the manufacturer’s instructions (iScriptTM, RT-qPCR sample preparation kit, Bio-Rad Laboratories). C. parvum was enumerated by quantitating the Cp18S-rRNA using the following specific forward and reverse primers - Cp18S-995F: 5’-[…]-3’ and Cp18S-1206R: 5’-[…]-3’ and compared to the human Hs18S-rRNA using the following primer sets - Hs18S-F1373: 5’-[…]-3’ and Hs18S-R1561: 5’-[…]-3’. The amount of 18S-rRNA was determined using 5 ng samples by RT-qPCR as described the manufacturer instructions using a Luna Universal One-Step® RT-qPCR kit (New England Biologics) and a Quant Studio 6 Flex 44 instrument. The cell number is calculated from the CT means using a set of standards prepared from 10^4, 10^5, and 10^6 C. parvum oocysts and compared to 10^4, 10^5, and 10^6 HCT-8 cells.

Caco-2 cells = assay: Caco-2 trans-well apparent permeability assay; format: in vitro ADME; conditions: Caco-2
Description: To initially characterize the permeability of BKIs 1294, 1369, and 1318, the software MedChem Designer (Simulations +, Lancaster, CA) was used to predict the Peff. The in vitro apparent permeability (Papp) was carried out by Absorption Systems LP (Exton, PA) with a Caco-2 trans-well assay. Caco-2 cells (clone C2BBe1) were obtained from American Type Culture Collection (Manassas, VA) were grown to confluence on collagen-coated, microporous membranes in 12-well assay plates. The permeability assay buffer was Hanks’ balanced salt solution (HBSS) containing 10 mM HEPES and 15 mM glucose at a pH of 7.4. The buffer in the receiver chamber also contained 1% bovine serum albumin. The dosing solution concentration was 5 µM BKI in assay buffer, and the cell monolayers were dosed on the apical side (A?B) or basolateral side (B?A) and incubated at 37°C with 5% CO2 in a humidified incubator. After 120 minutes, samples were taken from the donor and receiver chambers in duplicate. The Papp was calculated with equation (1) and the percent recovery with equation (2).
Papp = (dCr/dt) × Vr/(A × CA) (1)
Percent Recovery = 100 × ((Vr × Cr^final) + (Vd × Cd^final))/(Vd × […]) (2)
where dCr/dt is the slope of the cumulative concentration in the receiver compartment versus time in µM s^-1; Vr is the volume of the receiver compartment in cm^3; Vd is the volume of the donor compartment in cm^3; A is the area of the insert (1.13 cm^2 for 12-well); CA is the average of the nominal dosing concentration and the measured 120 minute donor concentration in µM; CN is the nominal concentration of the dosing solution in µM; Cr^final is the cumulative receiver concentration in µM at the end of the incubation period; Cd^final is the concentration of the donor in µM at the end of the incubation period.
To ensure no damage was inflicted to the cell monolayers during the flux period, lucifer yellow flux was also measured post-experimentally for each monolayer. To determine whether BKIs 1294, 1369, and 1318 were substrates of P-gp in vitro, P-gp efflux was characterized using the Caco-2 permeability assay protocol with a few modifications. The dosing solution concentration was 5 μM of BKI in the assay buffer +/- 1 μM valspodar. Cells were first pre-incubated for 30 minutes with HBSS containing +/- 1 μM valspodar. Cell monolayers were dosed on the apical side (A?B) or basolateral side (B?A), and incubated at 37°C with 5% CO2 in a humidified incubator. Samples were taken from the donor and receiver chambers at 120 minutes. Each determination was performed in duplicate.

[1] = Mouse gastrointestinal tissue pharmacokinetics; format: in vivo, mice; conditions: for AUC(0-t) / Cmax / Tmax: mouse, po
Description: At multiple time points following BKI1318 administration, mice were euthanized, and the GI tract was separated into segments corresponding to the duodenum, jejunum, ileum, and cecum/colon. […] At 0.5, 1, 2, 4, 8, and 12 hours, three mice in each group were sacrificed by cervical dislocation, and the duodenum, jejunum, ileum, and cecum/ascending colon were immediately collected. Each section of the GI tract was flushed with Dulbecco's phosphate-buffered saline, weighed, and placed in storage at -80°C. On the day of homogenization, 0.9% NaCl was added to each sample to achieve 200 mg/mL tissue concentration. Samples were homogenized using a handheld motorized homogenizer (Fisher Scientific, Waltham, MA) on ice and stored at -20°C until extraction and analysis. To report tissue concentrations, 1 gram of tissue was estimated to be 1 mL of volume.

[2] = HCT-8, in vitro, read-out: C. parvum EC50

EC50 (Cryptosporidium parvum; [2]): 2300 nM
SMILES: CCOc1ccc2cc(-c3nn(CC4CCN(C)CC4)c4ncnc(N)c34)ccc2n1 [BKI1369]
Reduction of C. parvum levels over the course of the study (C. parvum; hollow fiber model, polarized HCT-8 cells): > 3 orders of magnitude

EC50 (Cryptosporidium parvum; [2]): 3200 nM
EC50 (Cryptosporidium parvum; nonpolarized HCT-8 cells, BKI1318 alone, read-out: EC50 (±standard error) against C. parvum): 1600 ± 1500 nM
A → B Papp, fold lower than BKI1369 and BKI1294 (Caco-2 cells): approximately 50 fold
Effect of elacridar on levels in the cecum/colon ([1]; mice, cecum/colon tissue): did not significantly affect
Increase of duodenum exposure when elacridar administered before ([1]; mice, duodenum tissue, P < .05): approximately 2 fold
Increase of ileum exposure when elacridar administered before ([1]; mice, ileum tissue, P < .05): approximately 3 fold
Increase of jejunum exposure when elacridar administered before ([1]; mice, jejunum tissue, P < .05): approximately 2 fold
AUC(0-t) ([1]; cecum/colon, 30 mg/kg, Cecum/Colon, BKI 1318 alone, read-out: AUC0-12): 109 µM·h
Cmax ([1]; cecum/colon, 30 mg/kg, Cecum/Colon, BKI 1318 alone, read-out: Observed Cmax): 14.4 µM
Tmax ([1]; cecum/colon, 30 mg/kg, Cecum/Colon, BKI 1318 alone, read-out: Tmax): 9.3 h
AUC(0-t) ([1]; cecum/colon, Cecum/Colon, with elacridar, read-out: AUC0-12 w/ Elacridar): 65.5 ± 4 µM·h
Cmax ([1]; cecum/colon, Cecum/Colon, with elacridar, read-out: Cmax w/ Elacridar): 8.2 ± 0.3 µM
Tmax ([1]; cecum/colon, Cecum/Colon, with elacridar, read-out: Tmax w/ Elacridar): 7.3 ± 4.1 h
AUC(0-t) ([1]; duodenum, Duodenum, BKI 1318 alone, read-out: AUC0-12): 235 µM·h
Cmax ([1]; duodenum, Duodenum, BKI 1318 alone, read-out: Observed Cmax): 77.2 µM
Tmax ([1]; duodenum, Duodenum, BKI 1318 alone, read-out: Tmax): 0.5 h
AUC(0-t) ([1]; duodenum, Duodenum, with elacridar, P≤0.001, read-out: AUC0-12 w/ Elacridar): 537 µM·h
Cmax ([1]; duodenum, Duodenum, with elacridar, read-out: Cmax w/ Elacridar): 110 µM
Tmax ([1]; duodenum, Duodenum, with elacridar, read-out: Tmax w/ Elacridar): 0.7 ± 0.2 h
AUC(0-t) ([1]; ileum, 30 mg/kg, Ileum, BKI 1318 alone, read-out: AUC0-12): 336 µM·h
Cmax ([1]; ileum, Ileum, BKI 1318 alone, read-out: Observed Cmax): 79.8 µM
Tmax ([1]; ileum, Ileum, BKI 1318 alone, read-out: Tmax): 4.3 h
AUC(0-t) ([1]; ileum, Ileum, with elacridar, P≤0.05, read-out: AUC0-12 w/ Elacridar): 1150 µM·h
Cmax ([1]; ileum, Ileum, with elacridar, read-out: Cmax w/ Elacridar): 177 µM
Tmax ([1]; ileum, Ileum, with elacridar, read-out: Tmax w/ Elacridar): 2 h
AUC(0-t) ([1]; jejunum, Jejunum, BKI 1318 alone, read-out: AUC0-12): 279 µM·h
Cmax ([1]; jejunum, Jejunum, BKI 1318 alone, read-out: Observed Cmax): 108 µM
Tmax ([1]; jejunum, Jejunum, BKI 1318 alone, read-out: Tmax): 0.8 h
AUC(0-t) ([1]; jejunum, Jejunum, with elacridar, P≤0.05, read-out: AUC0-12 w/ Elacridar): 558 µM·h
Cmax ([1]; jejunum, Jejunum, with elacridar, read-out: Cmax w/ Elacridar): 98.1 µM
Tmax ([1]; jejunum, Jejunum, with elacridar, read-out: Tmax w/ Elacridar): 1.8 ± 1.5 h
SMILES: CCOc1ccc2cc(-c3nn(CC4CCNCC4)c4ncnc(N)c34)ccc2n1 [BKI1318]
Effect on C. parvum levels/growth (C. parvum; hollow fiber model, compound alone, 80 µM once daily): did not decrease; also recorded: no effect
Effect on C. parvum levels with elacridar coadministered (C. parvum; hollow fiber model, elacridar coadministered): reduced C. parvum levels by an order of magnitude
Reduction in C. parvum levels with elacridar (80 µM) coadministered (C. parvum; hollow fiber, 80 µM BKI1318 once daily plus 80 µM elacridar): approximately 1 log
